Experimental data: the NIST ThermoML archive (doi:10.1021/je030226s)

Tests used:
[1] = refractive index (Na D-line) (dimensionless); xn = mol fraction of the nth substance listed; conditions: 101.32 kPa, Liquid
[2] = xn = mol fraction of the nth substance listed; conditions: 101.32 kPa, Liquid

CCCCCl [1-chlorobutane] + CCCCO
Conditions	mass density, 288.15 K [kg/m3]	mass density, 298.15 K [kg/m3]	mass density, 308.15 K [kg/m3]	refractive index, 288.15 K	refractive index, 298.15 K	refractive index, 308.15 K	viscosity, 288.15 K [mPa·s]	viscosity, 298.15 K [mPa·s]	viscosity, 308.15 K [mPa·s]
[1], x2 = 0	–	–	–	1.4045	1.3993	1.3941	–	–	–
[1], x2 = 0.05	–	–	–	1.4041	1.3989	1.3936	–	–	–
[1], x2 = 0.1	–	–	–	1.4039	1.3987	1.3934	–	–	–
[1], x2 = 0.2	–	–	–	1.4035	1.3984	1.3932	–	–	–
[1], x2 = 0.3	–	–	–	1.4031	1.3982	1.3931	–	–	–
[1], x2 = 0.4	–	–	–	1.4029	1.3981	1.3931	–	–	–
[1], x2 = 0.5	–	–	–	1.4027	1.398	1.3932	–	–	–
[1], x2 = 0.6	–	–	–	1.4024	1.3979	1.3932	–	–	–
[1], x2 = 0.7	–	–	–	1.4022	1.3978	1.3933	–	–	–
[1], x2 = 0.8	–	–	–	1.4019	1.3977	1.3933	–	–	–
[1], x2 = 0.9	–	–	–	1.4016	1.3975	1.3933	–	–	–
[1], x2 = 0.95	–	–	–	1.4013	1.3974	1.3933	–	–	–
[2], x2 = 0	892.2	881	869.7	–	–	–	0.472	0.423	0.382
[2], x2 = 0.05	888	876.9	865.7	–	–	–	0.49	0.437	0.388
[2], x2 = 0.1	884.3	873.3	862.3	–	–	–	0.506	0.453	0.41
[2], x2 = 0.2	877	866.3	855.5	–	–	–	0.569	0.499	0.442
[2], x2 = 0.3	869.7	859.4	848.9	–	–	–	0.655	0.569	0.497
[2], x2 = 0.4	862.4	852.4	842.2	–	–	–	0.781	0.665	0.57
[2], x2 = 0.5	854.9	845.3	835.4	–	–	–	0.953	0.798	0.676
[2], x2 = 0.6	847.3	838	828.6	–	–	–	1.196	0.977	0.81
[2], x2 = 0.7	839.4	830.5	821.5	–	–	–	1.528	1.221	1
[2], x2 = 0.8	831.2	822.7	814.1	–	–	–	1.979	1.563	1.251
[2], x2 = 0.9	822.6	814.5	806.3	–	–	–	2.601	2.019	1.584
[2], x2 = 0.95	818.1	810.3	802.3	–	–	–	2.966	2.328	1.784

CCCO [propan-1-ol] + CCCCCl
x1 = 1
Conditions	mass density, 288.15 K [kg/m3]	mass density, 298.15 K [kg/m3]	mass density, 308.15 K [kg/m3]	refractive index, 288.15 K	refractive index, 298.15 K	refractive index, 308.15 K	viscosity, 288.15 K [mPa·s]	viscosity, 298.15 K [mPa·s]	viscosity, 308.15 K [mPa·s]
[1]	–	–	–	1.3869	1.3829	1.3789	–	–	–
[2]	807.6	799.6	791.5	–	–	–	2.504	1.958	1.548

CCCCO [butan-1-ol] + CCCCCl
x1 = 1
Conditions	mass density, 288.15 K [kg/m3]	mass density, 298.15 K [kg/m3]	mass density, 308.15 K [kg/m3]	refractive index, 288.15 K	refractive index, 298.15 K	refractive index, 308.15 K	viscosity, 288.15 K [mPa·s]	viscosity, 298.15 K [mPa·s]	viscosity, 308.15 K [mPa·s]
[1]	–	–	–	1.401	1.3972	1.3932	–	–	–
[2]	813.5	805.9	798.2	–	–	–	3.394	2.598	2.019
